Results: ChEMBL document CHEMBL1201862, “PubChem BioAssay data set” (2004)
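Cells were grown in 96-well plates and exposed to each compound for 48 hours at five concentrations; endpoints were interpolated linearly between bracketing concentrations, or set to the highest concentration if not reached. At the GI50, growth is halved.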 Active and inactive are the calls of the source. No stated cut-off is given here; in the data, active = GI50 up to about 1.1 µM and inactive = higher.

How the values were obtained:
Experiment in all cases: inhibition of tumour cell growth, NCI panel, 48 h
786-0 = system: 786-0
M14 = system: M14
M19-MEL = system: M19-MEL
LOX IMVI = system: LOX IMVI
HCT-15 = system: HCT-15
DMS-273 = system: DMS-273
SK-MEL-2 = system: SK-MEL-2
A498 = system: A498
UACC-62 = system: UACC-62
EKVX = system: EKVX
MOLT-4 = system: MOLT-4
SF-268 = system: SF-268
SNB-75 = system: SNB-75
MCF7 = system: MCF7
OVCAR-4 = system: OVCAR-4
HL-60 = system: HL-60
SR = system: SR
DU-145 = system: DU-145
BT-549 = system: BT-549

Row | Compound | GI50 (786-0) | GI50 (M14) | GI50 (M19-MEL) | GI50 (LOX IMVI) | GI50 (HCT-15) | GI50 (DMS-273) | GI50 (SK-MEL-2) | GI50 (A498) | GI50 (UACC-62) | GI50 (EKVX) | GI50 (MOLT-4) | GI50 (SF-268) | GI50 (SNB-75) | GI50 (MCF7) | GI50 (OVCAR-4) | GI50 (HL-60) | GI50 (SR) | GI50 (DU-145) | GI50 (BT-549)
1 | COc1ccc(C(=O)Nc2ccccc2)cc1[N+](=O)[O-] | > 100 µM (inactive) | > 100 µM (inactive) | > 100 µM (inactive) | > 100 µM (inactive) | > 100 µM | > 100 µM (inactive) | > 100 µM (inactive) | > 100 µM (inactive) | > 100 µM (inactive) | 46.6 µM (inactive) | 97.5 µM (inactive) | > 100 µM (inactive) | 59.7 µM (inactive) |  |  |  |  |  | 
2 | Cc1cc(O)c(-c2cc(O)c(C)cc2O)cc1O | 2.94 µM (inactive) | 7.67 µM (inactive) |  | 5.66 µM (inactive) | 7.67 µM |  | 17.2 µM (inactive) | 21 µM (inactive) | 15.6 µM (inactive) | 8.99 µM (inactive) | 2.06 µM (inactive) | 19.1 µM (inactive) | 14.9 µM (inactive) | 10 µM (inactive) | 5.5 µM (inactive) | 1.71 µM (inactive) | 0.977 µM (active) | 14.9 µM (inactive) | 12.2 µM (inactive)
3 | Cc1cc(C)nc(NS(=O)(=O)c2ccc(NC(=O)c3cccn4c(=O)c5ccccc5nc34)cc2)n1 | > 100 µM (inactive) | 50.7 µM (inactive) | 31.6 µM (inactive) | 29.1 µM (inactive) | 31 µM | 34.4 µM (inactive) | > 100 µM (inactive) |  | 20.5 µM (inactive) | 26.1 µM (inactive) | 23.8 µM (inactive) | 51.1 µM (inactive) | 32.7 µM (inactive) |  | 27.9 µM (inactive) | 21.5 µM (inactive) | 24 µM (inactive) |  | 
4 | CN1CCN(C2CC(=O)c3c(Cl)sc(Cl)c32)CC1 (configuration not stated) | 7.21 µM (inactive) | 6.82 µM (inactive) |  | 1.8 µM (inactive) | 10.4 µM |  | 19.1 µM (inactive) | 43.2 µM (inactive) | 16.3 µM (inactive) | 23.9 µM (inactive) | 5.48 µM (inactive) | 8.85 µM (inactive) | 14.7 µM (inactive) | 4.99 µM (inactive) | 14.6 µM (inactive) | 19.9 µM (inactive) | 4 µM (inactive) | 12.6 µM (inactive) | 20.3 µM (inactive)
5 | CS(=O)(=O)OC1CN2CCC1CC2 (configuration not stated) | > 100 µM (inactive) | > 100 µM (inactive) |  | > 100 µM (inactive) | > 100 µM |  | > 100 µM (inactive) | > 100 µM (inactive) | > 100 µM (inactive) | > 100 µM (inactive) | > 100 µM (inactive) | > 100 µM (inactive) | > 100 µM (inactive) | > 100 µM (inactive) | > 100 µM (inactive) | > 100 µM (inactive) | > 100 µM (inactive) | > 100 µM (inactive) | > 100 µM (inactive)
6 | CC(=O)N1CCN(C=S)CC1 | > 100 µM (inactive) | > 100 µM (inactive) | > 100 µM (inactive) | > 100 µM (inactive) | > 100 µM | > 100 µM (inactive) |  | > 100 µM (inactive) | > 100 µM (inactive) | > 100 µM (inactive) | > 100 µM (inactive) | > 100 µM (inactive) | > 100 µM (inactive) |  | > 100 µM (inactive) | > 100 µM (inactive) | > 100 µM (inactive) |  | 
7 | O=C(CC1(O)C(=O)Nc2ccccc21)c1ccncc1 (configuration not stated) | > 100 µM (inactive) | > 100 µM (inactive) | > 100 µM (inactive) | > 100 µM (inactive) | > 100 µM | > 100 µM (inactive) | > 100 µM (inactive) | > 100 µM (inactive) | > 100 µM (inactive) | > 100 µM (inactive) | > 100 µM (inactive) | > 100 µM (inactive) | > 100 µM (inactive) |  | > 100 µM (inactive) | > 100 µM (inactive) | > 100 µM (inactive) |  | 
8 | CCOC1=C2N=C(C(CC)c3ccc(F)cc3)N=C2C(=O)c2ccccc21 (configuration not stated) | 29.9 µM (inactive) | 26 µM (inactive) | 24 µM (inactive) | 16.2 µM (inactive) | 18.6 µM | 25.6 µM (inactive) | 18.7 µM (inactive) |  | 10.9 µM (inactive) | 26.9 µM (inactive) | 18 µM (inactive) | 19.7 µM (inactive) | 21 µM (inactive) |  | 19.7 µM (inactive) | 35.3 µM (inactive) | 21.3 µM (inactive) |  | 
9 | CC1OC(n2cc(F)c(=O)[nH]c2=O)C(O[Si](C)(C)C(C)(C)C)C1O[Si](C)(C)C(C)(C)C (configuration not stated) | 14.6 µM (inactive) | 20.2 µM (inactive) |  | 16.2 µM (inactive) | 12.9 µM |  | 16.3 µM (inactive) | 14.2 µM (inactive) | 14.8 µM (inactive) | 16.9 µM (inactive) | 13.2 µM (inactive) | 12 µM (inactive) | 15.5 µM (inactive) | 6.76 µM (inactive) | 6.41 µM (inactive) | 5.93 µM (inactive) | 6.03 µM (inactive) | 13.6 µM (inactive) | 13.4 µM (inactive)
